Literature values as cited in patent US12715832B2, “Co-crystal of coenzyme QH and nicotinamide, preparation method therefor and use thereof” (COCRYSTAL TECHNOLOGY (JIAXING) CO., LTD, priority 2021, dated 2026).

Conditions: in the air at 25° C. for 28 days

COc1c(O)c(C)c(C/C=C(\C)CC/C=C(\C)CC/C=C(\C)CC/C=C(\C)CC/C=C(\C)CC/C=C(\C)CC/C=C(\C)CC/C=C(\C)CC/C=C(\C)CCC=C(C)C)c(O)c1OC [stable polymorph of coenzyme QH, coenzyme QH]
coenzyme QH oxidized: about 6%
